# Laboratory results as given in patent US20230091225A1, “Bifunctional chimeric heterocyclic compounds for targeted degradation of androgen receptors and use thereof” (HINOVA PHARMACEUTICALS INC., priority 2019, published 2023).
# Test system: LNCaP/AR cells
# Assay: Inhibition of proliferation of LNCaP/AR prostate cancer cells (CCK-8)
# Type: cell-based
# Settings: 144 h; proliferation of LNCap/AR cells, 6 days, CCK-8; read-out: IC50
row,Compound,IC50
1,"CC(=O)O[C@@H]1C[C@@H](C(=O)N[C@@H](C)c2ccc(-c3scnc3C)cc2)N(C(=O)[C@@H](NC(=O)COCCCCCNc2ccc(NC(=O)N[C@H]3C(C)(C)[C@H](Oc4ccc(C#N)c(Cl)c4)C3(C)C)cc2)C(C)(C)C)C1 [Compound 1, (3R,5S)-1-((S)-2-(2-((5-((4-(3-((1R,3R)-3-(3-chloro-4-cyanophenoxy)-2,2,4,4-tetramethylcyclobutyl)ureido)phenyl)amino)pentyl)oxy)acetylamino)-3,3-dimethylbutyryl)-5-(((S)-1-(4-(4-methylthiazol-5-yl))phenyl)ethyl)carbamoyl) pyrrolidin-3-yl acetate]",> 1000 nM
2,"Cc1ncsc1-c1ccc([C@H](C)NC(=O)C2C[C@@H](O)CN2C(=O)[C@@H](NC(=O)COCCN2CCN(c3ccc4c(c3)CN([C@H]3C(C)(C)[C@H](Oc5ccc(C#N)c(Cl)c5)C3(C)C)C4=O)CC2)C(C)(C)C)cc1 (stereo partly drawn) [Compound 3, (2S,4R)-1-((S)-2-(2-(2-(4-(2-((1R,3R)-3-(3-chloro-4-cyanophenoxy)-2,2,4,4-tetramethylcyclobutyl)-1-oxoisoindolin-5-yl)piperazin-1-yl)ethoxy)acetylamino)-3,3-dimethylbutyryl)-4-hydroxy-N-((S)-1-(4-(4-methylthiazol-5-yl)phenyl)ethyl)pyrrolidine-2-carboxamide]",100 to 500 nM
3,N#Cc1ccc(O[C@H]2CC[C@H](N3Cc4cc(N5CCC(CN6CCN(c7ccc8c(c7)CN(C7CCC(=O)NC7=O)C8=O)CC6)CC5)ncc4C3=O)CC2)cc1Cl (stereo partly shown) [Compound 312],100 to 500 nM
4,N#Cc1ccc(O[C@H]2CC[C@H](N3Cc4cc(N5CCC(CN6CCN(c7cc8c(cc7F)C(=O)N(C7CCC(=O)NC7=O)C8)CC6)CC5)ncc4C3=O)CC2)cc1Cl (stereo partly shown) [Compound 313],< 100 nM
5,[2H]C1([2H])c2cc(C#CCCCOCC(=O)N[C@H](C(=O)N3C[C@H](O)C[C@H]3C(=O)N[C@@H](C)c3ccc(-c4scnc4C)cc3)C(C)(C)C)ccc2C(=O)N1[C@H]1C(C)(C)[C@H](Oc2ccc(C#N)c(Cl)c2)C1(C)C [Compound 403],< 100 nM
6,Cc1ncsc1-c1ccc([C@H](C)NC(=O)[C@@H]2C[C@@H](O)CN2C(=O)[C@@H](NC(=O)COCCCCC#Cc2ccc(C(=O)N[C@H]3C(C)(C)[C@H](Oc4ccc(C#N)c(Br)c4)C3(C)C)cc2)C(C)(C)C)cc1 [Compound 404],< 100 nM
7,"Cc1ncsc1-c1ccc([C@H](C)NC(=O)[C@@H]2C[C@@H](O)CN2C(=O)[C@@H](NC(=O)COCCCCCCc2ccc3c(c2)CN([C@H]2C(C)(C)[C@H](Oc4ccc(C#N)c(Cl)c4)C2(C)C)C3=O)C(C)(C)C)cc1 [Compound 408, (2S,4R)-1-((S)-2-(2-((6-(2-((1r,3r)-3-(3-chloro-4-cyanophenoxy)-2,2,4,4-tetramethylcyclobutyl)-1-oxoisoindolin-5-yl)hexyl)oxy)acetamide)-3,3-dimethylbutyryl)-4-hydroxy-N-((S)-1-(4-(4-methylthiazol-5-yl)phenyl)ethyl) pyrrolidine-2-carboxamide]",100 to 500 nM
8,Cc1ncsc1-c1ccc([C@H](C)NC(=O)[C@@H]2C[C@@H](O)CN2C(=O)[C@@H](NC(=O)COCC2CCN(c3ccc4c(c3)CN([C@H]3C(C)(C)[C@H](Oc5ccc(C#N)c(Cl)c5)C3(C)C)C4=O)CC2)C(C)(C)C)cc1 [Compound 409],< 100 nM
9,CC(=O)O[C@@H]1C[C@@H](C(=O)N[C@@H](C)c2ccc(-c3scnc3C)cc2)N(C(=O)[C@@H](NC(=O)COCC2CCN(c3ccc4c(c3)CN([C@H]3C(C)(C)[C@H](Oc5ccc(C#N)c(Cl)c5)C3(C)C)C4=O)CC2)C(C)(C)C)C1 [Compound 410],< 100 nM
10,Cc1ncsc1-c1ccc([C@H](C)NC(=O)[C@@H]2C[C@@H](O)CN2C(=O)[C@@H](NC(=O)COCCCCCNc2ccc3c(c2)CN([C@H]2C(C)(C)[C@H](Oc4ccc(C#N)c(Cl)c4)C2(C)C)C3=O)C(C)(C)C)cc1 [Compound 411],< 100 nM
11,CC(=O)O[C@@H]1C[C@@H](C(=O)N[C@@H](C)c2ccc(-c3scnc3C)cc2)N(C(=O)[C@@H](NC(=O)COCCCCCNc2ccc3c(c2)CN([C@H]2C(C)(C)[C@H](Oc4ccc(C#N)c(Cl)c4)C2(C)C)C3=O)C(C)(C)C)C1 [Compound 412],< 100 nM
12,"Cc1ncsc1-c1ccc([C@H](C)NC(=O)[C@@H]2C[C@@H](O)CN2C(=O)[C@@H](NC(=O)COCCCCCNc2ccc3c(c2)CN([C@H]2C(C)(C)[C@H](Oc4ccc(C#N)c(Br)c4)C2(C)C)C3=O)C(C)(C)C)cc1 [Compound 433, (2S,4R)-1-((S)-2-(2-((5-((2-((1r,3r)-3-(3-bromo-4-cyanophenoxy)-2,2,4,4-tetramethylcyclobutyl)-1-oxoisoindolin-5-yl)amino)pentyl)oxy)acetylamino)-3,3-dimethylbutyryl)-4-hydroxy-N-((S)-1-(4-(4-methylthiazole5-yl)phenyl)ethyl) pyrrolidinyl-2-carboxamide]",> 1000 nM

# Same assay, conditions: LNCaP/AR, 144 h
row,Compound,IC50
1,N#Cc1ccc(O[C@H]2CC[C@H](N3Cc4cc(N5CCC(CN6CCN(c7cc8c(cc7F)C(=O)N(C7CCC(=O)NC7=O)C8=O)CC6)CC5)ncc4C3=O)CC2)cc1Cl (stereo partly shown) [Compound 311],> 1000 nM

# Same assay, conditions: proliferation of LNCap/AR cells, 6 days, CCK-8; read-out: IC50
row,Compound,IC50
1,"CN1C(=O)CCC(N2Cc3cc(F)c(N4CCN(CC5CCN(c6ccc7c(n6)CN(C6CCC(Oc8ccc(C#N)c(Cl)c8)CC6)C7=O)CC5)CC4)cc3C2=O)C1=O (stereo not shown) [Compound 307, 2-chloro-4-((1r,4r)-4-(2-(4-((4-(6-fluoro-2-(1-methyl-2,6-dioxopiperidin-3-yl)-3-oxoisoindolin-5-yl)piperazin-1-yl)methyl)piperidin-1-yl)-5-oxo-5H-pyrrolo[3,4-b]pyridin-6(7H)-yl)cyclohexyl)oxy)benzonitrile]",500 to 1000 nM
2,"CC1(C)[C@H](Oc2ccc(C#N)c(Cl)c2)C(C)(C)[C@H]1N1Cc2cc(C#Cc3cnn(C4CN(c5cc6c(cc5F)C(=O)N(C5CCC(=O)NC5=O)C6=O)C4)c3)ccc2C1=O (stereo partly shown) [Compound 310, 2-chloro-4-((1r,3r)-3-(5-((1-(1-(2-(2,6-dioxopiperidin-3-yl)-6-fluoro-1,3-dioxoisoindolin-5-yl)azetidine-3-yl)-1H-pyrazol-4-yl)ethynyl)-1-oxoisoindolin-2-yl)-2,2,4,4-tetramethylcyclobutoxy)benzonitrile]",> 1000 nM
3,"(2R,4R)-1-((S)-2-(2-((1-(3-(2-((1r,3r)-3-(3-chloro-4-cyanophenoxy)-2,2,4,4-tetramethylcyclobutyl)-1-oxoisoindolin-5-yl)prop-2-yn-1-yl)azetidine-3-yl)oxy) acetylamino)-3,3-dimethylbutyryl)-4-hydroxy-N-((S)-1-(4-(4-(4-methylthiazol-5-yl)phenyl)ethyl)pyrrolidine-2-carboxamide [Compound 40]",100 to 500 nM
4,"(2R,4R)-1-((S)-2-(2-((5-((4-((1r,3r)-3-(4-(4H-1,2,4-triazol-1-yl)phenoxy)-2,2,4,4-tetramethylcyclobutyl)carbamoyl)phenyl)amino)pentyl)oxy)acetamide)-3,3-dimethylbutyryl)-4-hydroxy-N-((S)-1-(4-(4-methylthiazol-5-yl)phenyl)ethyl) pyrrolidine-2-carboxamide [Compound 405]",> 1000 nM
5,"(2R,4R)-1-((S)-2-(2-((6-(4-(((1r,3r)-3-(3-chloro-4-cyanophenoxy)-2,2,4,4-tetramethylcyclobutyl)(methoxy)benzamido)hex-5-yn-1-)oxy)acetamido)-3,3-dimethylbutyryl)-4-hydroxy-N-((S)-1-(4-(4-methylthiazol-5-)phenyl)ethyl) tetrahydropyrrole-2-amide [Compound 435]",500 to 1000 nM
6,"(2S,4R)-1-((S)-2-(2-((2-((5-(1r,3r)-3-(3-chloro-4-cyanophenoxy)-2,2,4,4-tetramethylcyclobutyl)-1-oxoisoindolin-5-yl)oxy)pentyl)oxy)acetamide)-3,3-dimethylbutyryl)-4-hydroxy-N-((S)-1-(4-(4-methylthiazol-5-yl)phenyl)ethyl) pyrrolidine-2-carboxamide [Compound 406]",100 to 500 nM
7,"(2S,4R)-1-((S)-2-(3-((4-(2-((1r,3r)-3-(3-chloro-4-cyanophenoxy)-2,2,4,4-tetramethylcyclobutyl)-1-oxoisoindolin-5-yl)3-butynoxy)propylamino)-3,3-dimethylbutanol)-4-hydroxy-N-(S)-1-(4-(4-methylthiazole)phenyl)ethyl) formamide [Compound 34]",< 100 nM

# Molecular target: T1, androgen receptor (AR) (Homo sapiens, UniProt P10275)
# T1 sequence (P10275 1-920): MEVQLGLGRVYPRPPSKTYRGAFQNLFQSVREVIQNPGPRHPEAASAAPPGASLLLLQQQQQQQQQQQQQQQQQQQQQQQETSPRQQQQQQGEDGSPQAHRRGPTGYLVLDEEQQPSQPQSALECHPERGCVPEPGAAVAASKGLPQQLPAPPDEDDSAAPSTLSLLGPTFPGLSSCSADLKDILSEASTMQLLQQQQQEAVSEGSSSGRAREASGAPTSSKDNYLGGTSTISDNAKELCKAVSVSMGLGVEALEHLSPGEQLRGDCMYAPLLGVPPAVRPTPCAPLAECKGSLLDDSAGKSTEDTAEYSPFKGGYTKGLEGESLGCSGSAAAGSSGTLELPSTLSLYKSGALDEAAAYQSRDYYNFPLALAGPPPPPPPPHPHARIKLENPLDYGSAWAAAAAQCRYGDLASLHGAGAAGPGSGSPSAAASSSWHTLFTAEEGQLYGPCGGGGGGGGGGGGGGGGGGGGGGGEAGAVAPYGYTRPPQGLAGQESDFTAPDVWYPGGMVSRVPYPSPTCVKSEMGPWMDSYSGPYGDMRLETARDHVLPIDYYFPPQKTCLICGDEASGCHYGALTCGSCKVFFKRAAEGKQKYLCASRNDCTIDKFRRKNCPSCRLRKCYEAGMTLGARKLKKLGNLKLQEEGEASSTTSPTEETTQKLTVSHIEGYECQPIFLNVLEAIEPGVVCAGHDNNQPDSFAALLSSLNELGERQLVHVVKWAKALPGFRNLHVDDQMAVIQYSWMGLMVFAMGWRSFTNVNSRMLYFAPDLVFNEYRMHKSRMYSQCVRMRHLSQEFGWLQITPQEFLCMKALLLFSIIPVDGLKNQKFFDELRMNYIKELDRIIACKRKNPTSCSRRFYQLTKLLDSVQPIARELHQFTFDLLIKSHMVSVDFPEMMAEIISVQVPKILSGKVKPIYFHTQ
# Assay: Degradation of androgen receptor (AR) protein in VCaP cells by ELISA
# Type: cell-based
# Settings: percentage of degraded AR at 100 nM, VCaP cells, 16 h, ELISA; read-out: % degradation
row,Compound,inhibition at 0.1 µM
1,"CC(=O)O[C@@H]1C[C@@H](C(=O)N[C@@H](C)c2ccc(-c3scnc3C)cc2)N(C(=O)[C@@H](NC(=O)COCCCCCNc2ccc(NC(=O)N[C@H]3C(C)(C)[C@H](Oc4ccc(C#N)c(Cl)c4)C3(C)C)cc2)C(C)(C)C)C1 [Compound 1, (3R,5S)-1-((S)-2-(2-((5-((4-(3-((1R,3R)-3-(3-chloro-4-cyanophenoxy)-2,2,4,4-tetramethylcyclobutyl)ureido)phenyl)amino)pentyl)oxy)acetylamino)-3,3-dimethylbutyryl)-5-(((S)-1-(4-(4-methylthiazol-5-yl))phenyl)ethyl)carbamoyl) pyrrolidin-3-yl acetate]",< 25%
2,"Cc1ncsc1-c1ccc([C@H](C)NC(=O)C2C[C@@H](O)CN2C(=O)[C@@H](NC(=O)COCCN2CCN(c3ccc4c(c3)CN([C@H]3C(C)(C)[C@H](Oc5ccc(C#N)c(Cl)c5)C3(C)C)C4=O)CC2)C(C)(C)C)cc1 (stereo partly drawn) [Compound 3, (2S,4R)-1-((S)-2-(2-(2-(4-(2-((1R,3R)-3-(3-chloro-4-cyanophenoxy)-2,2,4,4-tetramethylcyclobutyl)-1-oxoisoindolin-5-yl)piperazin-1-yl)ethoxy)acetylamino)-3,3-dimethylbutyryl)-4-hydroxy-N-((S)-1-(4-(4-methylthiazol-5-yl)phenyl)ethyl)pyrrolidine-2-carboxamide]",50 to 79%
